Test results published in US9896448B2, “Pyrimido[4,5-b]quinoline-4,5(3H, 10H)-dione derivatives” (Novartis AG, priority 2014, dated 2018).

How the values were obtained:
CFTR-Y122X = CFTR-Y122X assay (dual reporter Hek293 cell lines, Renilla luminescence readthrough); type: cell-based, human; conditions: for Emax / AC50: nonsense mutation suppression, 24 h incubation, tested up to 100 μM; for Emax: 100% = 14 mM paromomycin, read-out: Amax; for AC50: Renilla luminescence
From the text: In particular, compounds of formula (I) act as nonsense mutation suppressors on frequent PTCs, e.g. on Y122X in the mRNA of the cystic fibrosis conductance regulator protein (CFTR). This can be determined in vitro, for example, using cell lines expressing GFP-CFTR-Y122X-Renilla constructs as described herein.
Activity of compounds of the present invention was examined in recombinant, dual reporter isogenic Hek293 cell lines (“CFTR-Y122X assay”). The engineered reporter constructs contained the 18 bp sequence strech corresponding to a common Y122X PTC mutation in CFTR class I mutant patients (see Sermet-Gaudelus, BMC Medicine, 2007, 5(5)). Instead of a tyrosine (Y) in position 122 of the CFTR protein a TGA stop codon interrupts the open reading frame (Y122X) of the corresponding mRNA. This TGA stop codon triplet (followed by the pyrimidine base cytosine) is permissive to aminoglycoside mediated translational readthrough which served as positive control for high throughput screening. A corresponding TAA stop codon variant and a wildtype non mutated construct was used for confirmation and counter screening. The CFTR sequence was sandwitched between an eGFP reporter, and a triple myc tag sequence fused to a full length Renilla reporter. All sequences, including an intron containing one positioned pre-eGFP (b-globin intron) were cloned in frame. The corresponding expression constructs were stably expressed in the isogenic HEK-R4 cell host (Invitrogen Incorp.) and selected by blasticidin resistance. The isogenic integration of the construct minimizes gene dose effects and improves assay reproducibility. Stably integrated single cell derived clones were selected and characterized for aminoglycoside mediated readthrough. […] Readthrough of Y122X accumulates an intracellular localized fusion protein approximately 65.5 kDa in size as controlled by western blot analysis and immunofluorescence using an anti-renilla antibody. The eGFP reporter pre-PTC mutation serves as visual control for genetic stability of the screening clones and minimizes protein degradation of small fusion protein amounts. In the assay, compound concentration was 10 μM. In miniaturized 1536 well format 2000 cells were dispensed in 4 μl/well and incubated for 24 h at 37° C., 5% CO2. 40 nl compounds were placed on the cells with control wells containing 1 ul Paramomycin and 14.4 mM final concentration. Compounds were incubated for 24 h. Renilla Glo substrate (2.5 ul) was added and plates were centrifuged and processed for luminescence measurement using various readers. Activity calculation was done using the equation: A1(%)=100*(S−NC)/(AC−NC) where AC, NC and S correspond to active controls (injection of Stimulation buffer=100% stimulation), neutral controls (buffer injection which […]) and screening samples (S). NC corresponds to 0% activity whereas AC is 100% activity (14 mM paromomycin). False positive artefacts were removed in confirmation and validation screening using the same assay format followed by counterscreening using the respective wildtype construct (w/o PTC mutation) cell model. Compounds were tested up to 100 μM compound concentration.

[1] = tested on: alpha-L-Iduronidase W402X in Hurler patient derived fibroblast cells; experiment: Hurler patient derived fibroblast cell cultures: restored alpha-L-iduronidase activity (W402X readthrough); type: cell-based; conditions: Homo sapiens, 192 h, 8 days incubation, highest concentration 20 uM; for Emax: 100% = 14 mM paromomycin, read-out: Amax
From the text: Activity of compounds of the present invention was examined in patient derived fibroblast cells. The genotyped cells were derived from the Coriell Institute (#GM00798) and contain an in frame homozygous TGG to TAG change at nucleotide 1293 of exon 9 which results in a W402X mutation. The W402X mutation is one of the most common Hurler syndromes causing loss of function mutation. Between 60-70% of genotyped patients contain either the Q70X and/or the W402X in mutation and are classified as severe MPSI patients. This TAG stop codon triplet is permissive to aminoglycoside mediated translational readthrough which served as activity control for compound testing. Readthrough of W402X restores alpha-L-Iduronidase activity which results in removal of lysosomal accumulated Glycosaminoglycan's. Iduronidase expression could neither be detected by Taqman PCR© nor by enzyme activity or ELISA methods without compound stimulation. Compounds were tested in concentration response mode. Therefore 5000 patient cells/40 ul/well in 384 well plates were used. Compound dilutions were derived from freshly prepared 10 mM compound stock solutions. Highest concentration was 20 uM and subsequently diluted 1: 3.16 (8 point dilutions, n=4). Final DMSO concentration was below 0.5% and tested to be without effect on cell viability, growth and readthrough. Cells were incubated for 8 days with one cell media and compound exchange at day 3. Thereafter cell media was removed and cells were lysed (0.4 M Sodiumformate, 0.1% NaN3, 0.9% NaCl, 0.2% Triton, pH 3.5). Restored alpha-L-iduronidase activity in cell lysates was measured with the fluorescent 4-MU iduronide substrate (5 ul of 0.4 mM 4 Methylumbelliferyl alpha-L-iduronide/well) after 48 h incubation. Paromomycin was used as reference control (14 mM=100% control).

EC50 (CFTR-Y122X; Homo sapiens, HEK293, clone selected for HTS assay development, read-out: EC50 (response of selected clone to aminoglycoside mediated readthrough)) [µM]	SMILES	Emax (CFTR-Y122X; Homo sapiens, HEK293) [%]	AC50 (CFTR-Y122X; Homo sapiens, HEK293) [µM]	Emax [1] [%]	suppression, % of paromomycin reference activity (CFTR-Y122X; at the above dose ranges (up to 100 μM), paromomycin reference = 100%)	AC50 ([1]; 8 point dilutions) [µM]
	CCCc1nc2c(c(=O)c3ccccc3n2C)c(=O)n1-c1ccccn1 [Example 1.2, 10-methyl-2-propyl-3-(pyridin-2-yl)pyrimido[4,5-b]quinoline-4,5(3H,10H)-dione]	235	18	1		
	CC(C)c1nc2c(c(=O)c3ccccc3n2C)c(=O)n1-c1cc[nH]n1 [Example 1.1, 2-isopropyl-10-methyl-3-(1H-pyrazol-3-yl)pyrimido[4,5-b]quinoline-4,5(3H,10H)-dione]	14.8	6.7	7		
	CC(C)c1nc2c(c(=O)c3ccccc3n2C)c(=O)n1-c1ccncc1 [Example 1.6, 2-isopropyl-10-methyl-3-(pyridin-4-yl)pyrimido[4,5-b]quinoline-4,5(3H,10H)-dione]	14.9	2.9	5		
	CCCc1nc2c(c(=O)c3ccccc3n2C)c(=O)n1-c1ccn(C)n1 [Example 1.3, 10-methyl-3-(1-methyl-1H-pyrazol-3-yl)-2-propylpyrimido[4,5-b]quinoline-4,5(3H,10H)-dione]	202	31.8	8		
	CC(C)c1nc2c(c(=O)c3ccccc3n2C)c(=O)n1-c1ccsc1 [Example 1.5, 2-isopropyl-10-methyl-3-(thiophen-3-yl)pyrimido[4,5-b]quinoline-4,5(3H,10H)-dione]	128	12.3	5		
	CC(C)c1nc2c(c(=O)c3ccccc3n2C)c(=O)n1-c1ccnn1C [2-isopropyl-10-methyl-3-(1-methyl-1H-pyrazol-5-yl)pyrimido[4,5-b]quinoline-4,5(3H,10H)-dione]				less than 5%	
	CC(C)c1nc2c(c(=O)c3ccccc3n2C)c(=O)n1-c1ccccn1 [Example 1.7, 2-isopropyl-10-methyl-3-(pyridin-2-yl)pyrimido[4,5-b]quinoline-4,5(3H,10H)-dione]	164	11.7	11		
	CC(C)c1nc2c(c(=O)c3ccccc3n2C)c(=O)n1-c1ccn(C)n1 [Example 1.4, 2-isopropyl-10-methyl-3-(1-methyl-1H-pyrazol-3-yl)pyrimido[4,5-b]quinoline-4,5(3H,10H)-dione]	133	13.6	21		
1500	NC[C@@H]1O[C@H](O[C@H]2[C@@H](O)[C@H](O[C@@H]3[C@@H](O)[C@H](N)C[C@H](N)[C@H]3O[C@H]3O[C@H](CO)[C@@H](O)[C@H](O)[C@H]3N)O[C@@H]2CO)[C@H](N)[C@@H](O)[C@@H]1O [paromomycin, reference compound]					
	Cn1c2ccccc2c(=O)c2c(=O)n(-c3ccccn3)c(C3CCC3)nc21 [Example 1.8, 2-cyclobutyl-10-methyl-3-(pyridin-2-yl)pyrimido[4,5-b]quinoline-4,5(3H,10H)-dione]	271	4.8	184		9.9
